Measured values published in patent US8163758B2 (Parion Sciences, Inc., priority 2006, dated 2012).

Experiments:
[1] = molecular target: T1, beta-adrenergic receptor (Canis lupus familiaris, UniProt P54833); assay: Beta agonist activity, anion secretion short circuit current in airway epithelial monolayers in Ussing chambers; assay type: cell-based, canine
T1 construct: endogenous in cells; host or cells: primary canine bronchial epithelial cells cultured at air-liquid interface
Protocol: To assess beta agonist activity the compounds of the present invention involves the determination of lumenal drug addition to promote airway epithelial anion currents measured under short circuit current (ISC) using airway epithelial monolayers mounted in Ussing chambers. Cells obtained from freshly excised human, dog, or sheep airways are seeded onto porous 0.4 micron Transwell® Permeable Supports (Corning), cultured at air-liquid interface (ALI) conditions in hormonally defined media, and assayed for anion secretion (ISC) while bathed in Krebs Bicarbonate Ringer (KBR) in Ussing chambers. All test drug additions are to the lumenal bath with approximately half-log dose additions (from 8×10^−10 M to 6.5×10^−5 M), and the cumulative change in ISC (excitation) recorded. All drugs are prepared in dimethyl sulfoxide as stock solutions at a concentration from 1×10^−1 to 1×10^−2 M and stored at −20° C. […] Before the start of the concentration-effect relationship 552-02 a potent sodium channel blocker was applied to the apical surface (1 μM) to eliminate changes in Isc caused by sodium absorption. All data from the voltage clamps are collected via a computer interface and analyzed off-line.
Concentration-effect relationships for all compounds are considered and analyzed Using GraphPad Prism version 3.00 for Windows, GraphPad Software, San Diego Calif. USA.

[2] = molecular target: T2, epithelial sodium channel (ENaC) (Canis lupus familiaris, UniProt A0A8I3MKE6+A0A8I3Q679+Q95165); assay: ENaC blocking activity, short circuit current in airway epithelial monolayers in Ussing chambers; assay type: cell-based; conditions: canine bronchial epithelia
T2 construct: endogenous in cells; host or cells: primary canine bronchial epithelial cells cultured at air-liquid interface
T2 sequence (A0A8I3Q679 1-649): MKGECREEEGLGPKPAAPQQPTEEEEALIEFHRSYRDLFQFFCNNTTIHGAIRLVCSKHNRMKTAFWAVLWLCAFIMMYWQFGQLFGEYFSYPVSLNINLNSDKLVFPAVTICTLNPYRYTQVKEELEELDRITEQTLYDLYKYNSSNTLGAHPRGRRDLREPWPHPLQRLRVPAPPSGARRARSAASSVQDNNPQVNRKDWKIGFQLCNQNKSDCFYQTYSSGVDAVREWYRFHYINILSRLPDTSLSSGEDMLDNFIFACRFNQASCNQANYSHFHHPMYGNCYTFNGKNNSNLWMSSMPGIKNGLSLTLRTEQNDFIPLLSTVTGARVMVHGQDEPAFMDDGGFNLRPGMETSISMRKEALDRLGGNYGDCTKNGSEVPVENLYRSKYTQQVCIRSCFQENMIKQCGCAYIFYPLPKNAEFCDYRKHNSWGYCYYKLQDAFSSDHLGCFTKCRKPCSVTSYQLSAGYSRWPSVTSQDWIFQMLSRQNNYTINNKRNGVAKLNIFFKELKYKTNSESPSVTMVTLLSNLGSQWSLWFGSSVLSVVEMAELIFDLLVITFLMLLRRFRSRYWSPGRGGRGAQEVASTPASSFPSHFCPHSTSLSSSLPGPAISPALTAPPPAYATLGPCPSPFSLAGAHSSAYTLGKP
T2 sequence (Q95165 1-641): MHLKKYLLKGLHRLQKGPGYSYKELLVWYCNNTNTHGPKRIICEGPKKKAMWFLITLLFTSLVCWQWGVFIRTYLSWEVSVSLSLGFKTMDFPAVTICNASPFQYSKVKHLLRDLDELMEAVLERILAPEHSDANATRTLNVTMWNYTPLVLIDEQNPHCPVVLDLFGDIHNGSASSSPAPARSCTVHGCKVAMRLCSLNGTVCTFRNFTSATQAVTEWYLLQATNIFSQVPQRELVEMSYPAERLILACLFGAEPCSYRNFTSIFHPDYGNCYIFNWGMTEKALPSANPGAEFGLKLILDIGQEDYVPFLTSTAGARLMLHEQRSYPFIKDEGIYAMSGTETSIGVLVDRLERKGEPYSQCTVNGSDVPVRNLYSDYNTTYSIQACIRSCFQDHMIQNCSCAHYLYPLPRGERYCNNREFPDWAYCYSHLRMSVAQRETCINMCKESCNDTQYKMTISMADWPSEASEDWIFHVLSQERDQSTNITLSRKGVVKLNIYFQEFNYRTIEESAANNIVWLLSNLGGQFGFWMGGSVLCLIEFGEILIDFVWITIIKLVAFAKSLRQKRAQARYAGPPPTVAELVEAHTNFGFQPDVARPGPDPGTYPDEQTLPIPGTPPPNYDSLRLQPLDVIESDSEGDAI
T2 sequence (A0A8I3MKE6 1-646): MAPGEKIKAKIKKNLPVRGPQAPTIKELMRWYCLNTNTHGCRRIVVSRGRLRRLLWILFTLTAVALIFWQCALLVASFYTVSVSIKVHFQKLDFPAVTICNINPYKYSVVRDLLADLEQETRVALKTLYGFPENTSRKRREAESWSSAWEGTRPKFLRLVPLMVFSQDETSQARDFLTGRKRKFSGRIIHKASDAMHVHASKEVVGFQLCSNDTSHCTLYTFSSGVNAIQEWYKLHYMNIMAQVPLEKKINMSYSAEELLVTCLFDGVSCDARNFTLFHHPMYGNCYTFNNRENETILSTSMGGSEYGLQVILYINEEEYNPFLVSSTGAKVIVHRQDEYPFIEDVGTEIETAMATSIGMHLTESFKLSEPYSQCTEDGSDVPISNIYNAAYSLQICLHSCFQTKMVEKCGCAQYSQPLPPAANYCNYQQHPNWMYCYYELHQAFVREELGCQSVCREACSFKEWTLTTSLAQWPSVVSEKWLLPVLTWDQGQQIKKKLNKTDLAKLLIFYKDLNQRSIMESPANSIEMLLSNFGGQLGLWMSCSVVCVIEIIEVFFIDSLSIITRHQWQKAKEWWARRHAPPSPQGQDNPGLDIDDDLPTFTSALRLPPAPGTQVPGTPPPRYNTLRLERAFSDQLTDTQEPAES
Protocol: To assess epithelial sodium channel blocker potency the compounds of the present invention involves the determination of lumenal drug inhibition of airway epithelial sodium currents measured under short circuit current (ISC) using airway epithelial monolayers mounted in Ussing chambers. Cells obtained from freshly excised human, or dog airways are seeded onto porous 0.4 micrometer Transwell® Permeable Supports (Corning Inc. Acton, Mass.), cultured at air-liquid interface (ALI) conditions in hormonally defined media, and assayed for sodium transport activity (ISC) while bathed in Krebs Bicarbonate Ringer (KBR) in Ussing chambers. All test drug additions are to the lumenal bath with approximately half-log dose additions (from 1×10^−11 M to 6×10^−5 M), and the cumulative change in ISC (decreases) recorded. All drugs are prepared in dimethyl sulfoxide as stock solutions at a concentration of approximately 1×10^−2 and stored at −20° C. Six preparations are typically run in parallel; one preparation per run incorporates 552-02 as a positive control. Before the start of the concentration-effect relationship propranolol, a non-selective […], was applied to the lumenal bath (10 μM) to inhibit the beta agonist component of the designer multiple ligand (DML). All data from the voltage clamps are collected via a computer face and analyzed off-line.
Concentration-effect relationships for all compounds are considered and analyzed Using GraphPad Prism version 3.00 for Windows, GraphPad Software, San Diego Calif. USA. IC50 values, […], are calculated and compared to the 552-02 potency as a positive control.

T1 sequence (P54833 whole entry): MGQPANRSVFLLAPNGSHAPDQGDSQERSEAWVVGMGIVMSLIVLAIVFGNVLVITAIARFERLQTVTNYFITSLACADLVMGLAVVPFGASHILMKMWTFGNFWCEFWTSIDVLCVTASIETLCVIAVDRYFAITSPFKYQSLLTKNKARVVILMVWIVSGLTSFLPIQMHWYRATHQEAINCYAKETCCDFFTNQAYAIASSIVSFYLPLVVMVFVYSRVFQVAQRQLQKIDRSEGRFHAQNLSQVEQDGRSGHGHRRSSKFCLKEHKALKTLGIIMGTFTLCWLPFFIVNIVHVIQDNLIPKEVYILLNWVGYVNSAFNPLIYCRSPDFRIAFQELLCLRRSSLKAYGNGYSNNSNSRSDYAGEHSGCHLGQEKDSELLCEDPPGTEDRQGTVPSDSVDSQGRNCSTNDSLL

- EC50 [1]: 1580 nM
- melting point: 108 to 110 °C
- ENaC blocking potency relative to Amiloride ([2]; fold potency versus amiloride): 91 × Amiloride
- IC50 ([2]; lumenal addition, propranolol 10 μM applied first): 9.2 nM
Structure (SMILES): CS(=O)(=O)Nc1cc([C@@H](O)CNCCCCc2ccc(CCCCNC(=N)NC(=O)c3nc(Cl)c(N)nc3N)cc2)ccc1O [Compound 40, N-(5-{2-[4-(4-{4-[N′-(3,5-diamino-6-chloropyrazine-2-carbonyl)-guanidino]butyl}phenyl)butylamino]-1-(R)-hydroxyethyl}-2-hydroxyphenyl)-methanesulfonamide]
